Target: T1, BRM (Homo sapiens, UniProt P51531)
T1 construct: In-Cell Western Screen of BRM Degradation in SW1573 Cells; endogenous in cells; host or cells: SW1573
Assay: In-cell Western screen of BRM degradation in SW1573 cells (Dmax and DC50)
Type: cell-based
Conditions: BRM degradation, SW1573 cells; for DC50: read-out: DC50; for Dmax: when tested at the top concentration of between 0.3 and 10 μM, read-out: Dmax (%) (% degraded)
Summary of the method: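 SW1573, overnight cpd exposure (18-20 h), 0.1% DMSO final. PFA fix, 0.5% Triton permeabilization, block; IR secondaries at 800/680 nm. Odyssey read → Dmax, DC50.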

T1 sequence (P51531 whole entry): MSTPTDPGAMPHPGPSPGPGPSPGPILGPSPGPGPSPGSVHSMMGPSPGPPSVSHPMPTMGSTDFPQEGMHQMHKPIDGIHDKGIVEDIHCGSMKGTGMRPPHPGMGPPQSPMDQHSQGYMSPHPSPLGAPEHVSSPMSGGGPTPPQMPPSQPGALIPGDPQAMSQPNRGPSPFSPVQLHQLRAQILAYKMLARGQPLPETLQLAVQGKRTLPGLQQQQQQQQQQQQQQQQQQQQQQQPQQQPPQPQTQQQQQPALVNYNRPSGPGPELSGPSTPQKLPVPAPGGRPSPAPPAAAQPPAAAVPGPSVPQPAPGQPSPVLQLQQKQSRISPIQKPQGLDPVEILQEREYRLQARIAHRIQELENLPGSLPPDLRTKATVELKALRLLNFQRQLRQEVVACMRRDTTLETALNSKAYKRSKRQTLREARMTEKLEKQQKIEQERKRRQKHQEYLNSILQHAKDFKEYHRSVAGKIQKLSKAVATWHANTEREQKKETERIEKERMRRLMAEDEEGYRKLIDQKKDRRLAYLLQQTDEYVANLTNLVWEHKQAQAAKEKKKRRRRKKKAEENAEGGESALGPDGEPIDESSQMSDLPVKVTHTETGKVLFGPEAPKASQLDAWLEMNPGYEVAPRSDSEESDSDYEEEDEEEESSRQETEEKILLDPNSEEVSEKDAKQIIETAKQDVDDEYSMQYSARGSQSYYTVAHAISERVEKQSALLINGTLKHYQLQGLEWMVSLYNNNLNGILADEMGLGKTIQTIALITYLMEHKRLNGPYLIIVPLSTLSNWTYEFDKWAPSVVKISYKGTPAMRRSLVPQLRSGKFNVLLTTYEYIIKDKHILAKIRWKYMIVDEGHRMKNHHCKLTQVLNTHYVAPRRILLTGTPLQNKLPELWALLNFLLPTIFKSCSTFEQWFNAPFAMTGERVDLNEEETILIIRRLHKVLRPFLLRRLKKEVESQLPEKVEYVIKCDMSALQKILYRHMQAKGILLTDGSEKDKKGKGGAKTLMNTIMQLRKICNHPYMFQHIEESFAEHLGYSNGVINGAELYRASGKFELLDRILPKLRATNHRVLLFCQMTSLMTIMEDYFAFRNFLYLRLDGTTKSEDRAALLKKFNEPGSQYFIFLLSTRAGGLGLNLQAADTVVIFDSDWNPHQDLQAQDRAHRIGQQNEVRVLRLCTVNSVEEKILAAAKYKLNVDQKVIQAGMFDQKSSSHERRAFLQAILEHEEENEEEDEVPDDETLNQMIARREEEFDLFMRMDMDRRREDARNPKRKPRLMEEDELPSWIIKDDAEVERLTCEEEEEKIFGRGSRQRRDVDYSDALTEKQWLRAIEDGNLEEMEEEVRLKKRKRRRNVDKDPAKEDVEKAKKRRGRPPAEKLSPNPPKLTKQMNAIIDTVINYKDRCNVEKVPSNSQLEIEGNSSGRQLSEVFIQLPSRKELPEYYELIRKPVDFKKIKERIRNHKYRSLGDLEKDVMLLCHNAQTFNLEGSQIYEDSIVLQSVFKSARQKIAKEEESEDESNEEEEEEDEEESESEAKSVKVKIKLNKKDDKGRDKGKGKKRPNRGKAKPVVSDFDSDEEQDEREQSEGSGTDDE

SMILES | DC50 [µM] | Dmax [%]
Cc1ncsc1-c1ccc(CNC(=O)[C@@H]2C[C@@H](O)CN2C(=O)[C@@H](NC(=O)Cc2ccc(N3CCN(CCOCCCc4cc(N5C6CCC5CN(c5cc(-c7ccccc7O)nnc5N)C6)ccn4)CC3)nc2)C(C)(C)C)cc1 [compound 31, (2S,4R)-1-((2S)-2-(2-(6-(4-(2-(3-(4-(3-(3-amino-6-(2-hydroxyphenyl)pyridazin-4-yl)-3,8-diazabicyclo[3.2.1]octan-8-yl)pyridin-2-yl)propoxy)ethyl)piperazin-1-yl)pyridin-3-yl)acetamido)-3,3-dimethylbutanoyl)-4-hydroxy-N-(4-(4-methylthiazol-5-yl)benzyl)pyrrolidine-2-carboxamide] | 0.01 to 0.03 | > 75
Cc1ncsc1-c1ccc(CNC(=O)[C@@H]2C[C@@H](O)CN2C(=O)[C@@H](NC(=O)COCCOCCOCCOc2cccc(N3C[C@H]4C[C@@H]3CN4c3cc(-c4ccccc4O)nnc3N)n2)C(C)(C)C)cc1 [compound 32, (2S,4R)-1-[(2S)-2-(1-[6-[(1R,4R)-5-[3-amino-6-(2-hydroxyphenyl)pyridazin-4-yl]-2,5-diazabicyclo[2.2.1]heptan-2-yl]pyridin-2-yl]-1,4,7,10-tetraoxadodecan-12-amido)-3,3-dimethylbutanoyl]-4-hydroxy-N-[[4-(4-methyl-1,3-thiazol-5-yl)phenyl]methyl]pyrrolidine-2-carboxamide] | > 0.03 | > 75
Cc1ncsc1-c1ccc(CNC(=O)[C@@H]2C[C@@H](O)CN2C(=O)[C@@H](NC(=O)COCCCc2ccc(C(C)n3cc(-c4cc(-c5ccccc5O)nnc4N)cn3)cc2)C(C)(C)C)cc1 (stereo partly drawn) [compound 33, (2S,4R)-1-[(2S)-2-(2-[3-[4-(1-[4-[3-amino-6-(2-hydroxyphenyl)pyridazin-4-yl]-1H-pyrazol-1-yl]ethyl)phenyl]propoxy]acetamido)-3,3-dimethylbutanoyl]-4-hydroxy-N-[[4-(4-methyl-1,3-thiazol-5-yl)phenyl]methyl]pyrrolidine-2-carboxamide] | 0.0025 to 0.01 | > 75
Cc1ncsc1-c1ccc(CNC(=O)[C@@H]2C[C@@H](O)CN2C(=O)[C@@H](NC(=O)COCCOCCOCCOc2cncc(N3C4CCC3CN(c3cc(-c5ccccc5O)nnc3N)C4)n2)C(C)(C)C)cc1 [compound 34, (2S,4R)-1-[(2S)-2-[1-(6-[3-[3-amino-6-(2-hydroxyphenyl)pyridazin-4-yl]-3,8-diazabicyclo[3.2.1]octan-8-yl]pyrazin-2-yl)-1,4,7,10-tetraoxadodecan-12-amido]-3,3-dimethylbutanoyl]-4-hydroxy-N-[[4-(4-methyl-1,3-thiazol-5-yl)phenyl]methyl]pyrrolidine-2-carboxamide] | > 0.03 | > 75
Cc1ncsc1-c1ccc([C@H](C)NC(=O)[C@@H]2C[C@@H](O)CN2C(=O)[C@@H](NC(=O)COCCOCCOCCOCCOCCOCCOCCOc2cc(N3C4CCC3CN(c3cc(-c5ccccc5O)nnc3N)C4)ccn2)C(C)(C)C)cc1 [compound 35, (2S,4R)-1-[(2S)-2-[1-(4-[3-[3-amino-6-(2-hydroxyphenyl)pyridazin-4-yl]-3,8-diazabicyclo[3.2.1]octan-8-yl]pyridin-2-yl)-1,4,7,10,13,16,19,22-octaoxatetracosan-24-amido]-3,3-dimethylbutanoyl]-4-hydroxy-N-[(1S)-1-[4-(4-methyl-1,3-thiazol-5-yl)phenyl]ethyl]pyrrolidine-2-carboxamide] | 0.0025 to 0.01 | > 75
Cc1ncsc1-c1ccc(CNC(=O)[C@@H]2C[C@@H](O)CN2C(=O)[C@H](c2cc(OCCOCCOCCCCN3CCOC4(CCN(c5cc(-c6ccccc6O)nnc5N)CC4)C3)no2)C(C)C)cc1 [compound 36, (2S,4R)-1-[(2S)-2-(3-[2-[2-(4-[9-[3-amino-6-(2-hydroxyphenyl)pyridazin-4-yl]-1-oxa-4,9-diazaspiro[5.5]undecan-4-yl]butoxy)ethoxy]ethoxy]-1,2-oxazol-5-yl)-3-methylbutanoyl]-4-hydroxy-N-[[4-(4-methyl-1,3-thiazol-5-yl)phenyl]methyl]pyrrolidine-2-carboxamide] | > 0.03 | 50 to 75
Cc1ncsc1-c1ccc(CNC(=O)[C@@H]2C[C@@H](O)CN2C(=O)[C@@H](c2cc(OCCOCCOCCCCN3CCOC4(CCN(c5cc(-c6ccccc6O)nnc5N)CC4)C3)no2)C(C)C)cc1 [compound 37, (2S,4R)-1-((R)-2-(3-(2-(2-(4-(9-(3-amino-6-(2-hydroxyphenyl)pyridazin-4-yl)-1-oxa-4,9-diazaspiro[5.5]undecan-4-yl)butoxy)ethoxy)ethoxy)isoxazol-5-yl)-3-methylbutanoyl)-4-hydroxy-N-(4-(4-methylthiazol-5-yl)benzyl)pyrrolidine-2-carboxamide] | 0.0025 to 0.01 | > 75
Cc1ncsc1-c1ccc(CNC(=O)[C@@H]2C[C@@H](O)CN2C(=O)[C@@H](NC(=O)COCCOCCN2CCN(CCCc3cc(N4C5CCC4CN(c4cc(-c6ccccc6O)nnc4N)C5)ccn3)CC2)C(C)(C)C)cc1 [compound 40, (2S,4R)-1-[(2S)-2-[2-[2-(2-[4-[3-(4-[3-[3-amino-6-(2-hydroxyphenyl)pyridazin-4-yl]-3,8-diazabicyclo[3.2.1]octan-8-yl]pyridin-2-yl)propyl]piperazin-1-yl]ethoxy)ethoxy]acetamido]-3,3-dimethylbutanoyl]-4-hydroxy-N-[[4-(4-methyl-1,3-thiazol-5-yl)phenyl]methyl]pyrrolidine-2-carboxamide] | > 0.03 | < 50
Cc1ncsc1-c1ccc(CNC(=O)[C@@H]2C[C@@H](O)CN2C(=O)[C@H](c2cc(OCCN3CCN(CCOc4cc(N5C6CCC5CN(c5cc(-c7ccccc7O)nnc5N)C6)ccn4)CC3)no2)C(C)C)cc1 [compound 41, (2S,4R)-1-[(2S)-2-[3-[2-(4-[2-[(4-[3-[3-amino-6-(2-hydroxyphenyl)pyridazin-4-yl]-3,8-diazabicyclo[3.2.1]octan-8-yl]pyridin-2-yl)oxy]ethyl]piperazin-1-yl)ethoxy]-1,2-oxazol-5-yl]-3-methylbutanoyl]-4-hydroxy-N-[[4-(4-methyl-1,3-thiazol-5-yl)phenyl]methyl]pyrrolidine-2-carboxamide] | 0.01 to 0.03 | > 75
Cc1ncsc1-c1ccc(CNC(=O)[C@@H]2C[C@@H](O)CN2C(=O)[C@@H](c2cc(OCCN3CCN(CCOc4cc(N5C6CCC5CN(c5cc(-c7ccccc7O)nnc5N)C6)ccn4)CC3)no2)C(C)C)cc1 [compound 42, (2S,4R)-1-[(2R)-2-[3-[2-(4-[2-[(4-[3-[3-amino-6-(2-hydroxyphenyl)pyridazin-4-yl]-3,8-diazabicyclo[3.2.1]octan-8-yl]pyridin-2-yl)oxy]ethyl]piperazin-1-yl)ethoxy]-1,2-oxazol-5-yl]-3-methylbutanoyl]-4-hydroxy-N-[[4-(4-methyl-1,3-thiazol-5-yl)phenyl]methyl]pyrrolidine-2-carboxamide] | < 0.0025 | > 75
Cc1ncsc1-c1ccc(CNC(=O)[C@@H]2C[C@@H](O)CN2C(=O)[C@H](c2cc(OCCN3CCN(CCCc4cc(N5C6CCC5CN(c5cc(-c7ccccc7O)nnc5N)C6)ccn4)CC3)no2)C(C)C)cc1 [compound 43, (2S,4R)-1-[(2S)-2-[3-(2-[4-[3-(4-[3-[3-amino-6-(2-hydroxyphenyl)pyridazin-4-yl]-3,8-diazabicyclo[3.2.1]octan-8-yl]pyridin-2-yl)propyl]piperazin-1-yl]ethoxy)-1,2-oxazol-5-yl]-3-methylbutanoyl]-4-hydroxy-N-[[4-(4-methyl-1,3-thiazol-5-yl)phenyl]methyl]pyrrolidine-2-carboxamide] | – | < 50
